Columns and labels:
PIK4CB (PI4KB) = PIK4CB (PI4KB) (Homo sapiens (Human), UniProt Q9UBF8); experiment: KINOMEscan scanMAX; type: binding; conditions: 2000 nM; read-out: Percent Control
FLT3(D835V) = FLT3(D835V) (Homo sapiens (Human), UniProt P36888, D835V); experiment: KINOMEscan scanMAX; type: binding; conditions: 2000 nM; read-out: Percent Control
CDK19 = CDK19 (Homo sapiens (Human), UniProt Q9BWU1); experiment: DiscoverX Kd assay
CSNK1G2 = CSNK1G2 (Homo sapiens (Human), UniProt P78368); experiment: KINOMEscan scanMAX; type: binding; conditions: 2000 nM; read-out: Percent Control
Chain of CSNK1G2 (P78368 whole entry): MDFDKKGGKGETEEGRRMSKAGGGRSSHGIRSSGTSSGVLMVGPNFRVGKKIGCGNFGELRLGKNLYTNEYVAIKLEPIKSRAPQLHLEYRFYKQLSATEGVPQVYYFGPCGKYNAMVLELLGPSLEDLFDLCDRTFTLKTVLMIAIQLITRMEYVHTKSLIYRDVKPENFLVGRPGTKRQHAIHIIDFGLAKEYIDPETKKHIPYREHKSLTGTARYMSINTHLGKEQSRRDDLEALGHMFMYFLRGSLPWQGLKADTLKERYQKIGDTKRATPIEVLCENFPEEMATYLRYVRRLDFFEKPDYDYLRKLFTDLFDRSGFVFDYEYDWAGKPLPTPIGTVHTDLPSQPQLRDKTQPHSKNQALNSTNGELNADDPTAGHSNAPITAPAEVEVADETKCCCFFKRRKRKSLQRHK

CLK1 = CLK1 (Homo sapiens (Human), UniProt P49759); experiment: KINOMEscan scanMAX; type: binding; conditions: 2000 nM; read-out: Percent Control
Chain of CLK1 (P49759 whole entry): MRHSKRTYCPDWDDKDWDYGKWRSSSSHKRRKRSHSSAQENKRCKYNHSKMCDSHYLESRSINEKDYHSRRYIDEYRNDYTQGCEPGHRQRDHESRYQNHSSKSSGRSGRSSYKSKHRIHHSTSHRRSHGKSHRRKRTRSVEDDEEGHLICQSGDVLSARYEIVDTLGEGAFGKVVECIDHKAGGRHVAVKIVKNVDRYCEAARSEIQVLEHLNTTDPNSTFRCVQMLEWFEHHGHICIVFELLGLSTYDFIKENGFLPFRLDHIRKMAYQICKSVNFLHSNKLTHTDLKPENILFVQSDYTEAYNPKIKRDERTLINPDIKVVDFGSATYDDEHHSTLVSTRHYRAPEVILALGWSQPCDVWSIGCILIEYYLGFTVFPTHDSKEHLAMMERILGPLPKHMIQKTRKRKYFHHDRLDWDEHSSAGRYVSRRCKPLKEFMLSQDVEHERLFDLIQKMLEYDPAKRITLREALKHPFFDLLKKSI

[1] = target: RSK2(Kin.Dom.2-C-terminal) (RPS6KA3) (Homo sapiens (Human), UniProt P51812); experiment: KINOMEscan scanMAX; type: binding; conditions: 2000 nM; read-out: Percent Control
Chain of RSK2(Kin.Dom.2-C-terminal) (RPS6KA3) (P51812 422-679): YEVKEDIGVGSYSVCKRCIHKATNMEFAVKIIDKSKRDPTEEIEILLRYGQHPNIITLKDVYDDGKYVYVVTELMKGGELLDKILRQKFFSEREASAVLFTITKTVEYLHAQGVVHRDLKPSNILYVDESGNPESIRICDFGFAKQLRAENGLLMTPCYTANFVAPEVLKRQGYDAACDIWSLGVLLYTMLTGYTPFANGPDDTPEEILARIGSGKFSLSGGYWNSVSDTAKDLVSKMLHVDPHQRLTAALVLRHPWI

MAP4K5 = MAP4K5 (Homo sapiens (Human), UniProt Q9Y4K4); experiment: KINOMEscan scanMAX; type: binding; conditions: 2000 nM; read-out: Percent Control
Chain of MAP4K5 (Q9Y4K4 whole entry): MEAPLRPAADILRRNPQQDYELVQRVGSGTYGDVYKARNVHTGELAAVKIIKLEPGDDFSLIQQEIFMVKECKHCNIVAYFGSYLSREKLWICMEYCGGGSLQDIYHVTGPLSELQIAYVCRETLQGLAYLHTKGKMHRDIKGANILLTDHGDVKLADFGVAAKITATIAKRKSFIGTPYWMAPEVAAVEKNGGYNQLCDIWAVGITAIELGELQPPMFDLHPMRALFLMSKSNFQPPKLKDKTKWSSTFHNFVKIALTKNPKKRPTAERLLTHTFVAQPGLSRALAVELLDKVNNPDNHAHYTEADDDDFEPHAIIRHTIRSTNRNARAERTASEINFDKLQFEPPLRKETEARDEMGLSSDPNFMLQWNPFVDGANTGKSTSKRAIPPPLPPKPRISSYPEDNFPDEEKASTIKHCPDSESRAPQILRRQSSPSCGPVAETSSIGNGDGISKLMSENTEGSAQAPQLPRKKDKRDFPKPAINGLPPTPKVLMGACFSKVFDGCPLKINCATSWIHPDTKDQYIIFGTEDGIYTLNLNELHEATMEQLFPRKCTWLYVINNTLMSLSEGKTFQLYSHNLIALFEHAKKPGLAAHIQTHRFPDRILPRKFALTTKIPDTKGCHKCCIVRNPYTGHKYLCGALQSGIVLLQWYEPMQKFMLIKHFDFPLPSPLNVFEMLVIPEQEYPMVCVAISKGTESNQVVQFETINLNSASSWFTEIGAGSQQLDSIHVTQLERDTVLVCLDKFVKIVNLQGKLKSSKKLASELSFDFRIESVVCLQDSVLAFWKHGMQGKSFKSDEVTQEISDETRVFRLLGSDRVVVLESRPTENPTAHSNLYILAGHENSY

Chain of CDK19 (Q9BWU1 whole entry): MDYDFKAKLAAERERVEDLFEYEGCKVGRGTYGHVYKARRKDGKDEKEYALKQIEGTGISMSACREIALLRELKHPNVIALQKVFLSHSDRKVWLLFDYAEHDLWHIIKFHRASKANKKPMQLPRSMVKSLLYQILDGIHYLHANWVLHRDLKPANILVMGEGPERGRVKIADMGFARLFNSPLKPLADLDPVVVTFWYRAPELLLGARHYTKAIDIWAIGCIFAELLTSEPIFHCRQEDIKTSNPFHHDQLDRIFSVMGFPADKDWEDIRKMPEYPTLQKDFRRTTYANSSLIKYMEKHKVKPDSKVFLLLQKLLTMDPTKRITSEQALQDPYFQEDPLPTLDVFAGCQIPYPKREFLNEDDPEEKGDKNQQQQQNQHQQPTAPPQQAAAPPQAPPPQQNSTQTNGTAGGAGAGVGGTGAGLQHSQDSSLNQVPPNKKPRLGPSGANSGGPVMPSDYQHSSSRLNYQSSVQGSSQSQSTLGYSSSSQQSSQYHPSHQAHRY
Chain of PIK4CB (PI4KB) (Q9UBF8 whole entry): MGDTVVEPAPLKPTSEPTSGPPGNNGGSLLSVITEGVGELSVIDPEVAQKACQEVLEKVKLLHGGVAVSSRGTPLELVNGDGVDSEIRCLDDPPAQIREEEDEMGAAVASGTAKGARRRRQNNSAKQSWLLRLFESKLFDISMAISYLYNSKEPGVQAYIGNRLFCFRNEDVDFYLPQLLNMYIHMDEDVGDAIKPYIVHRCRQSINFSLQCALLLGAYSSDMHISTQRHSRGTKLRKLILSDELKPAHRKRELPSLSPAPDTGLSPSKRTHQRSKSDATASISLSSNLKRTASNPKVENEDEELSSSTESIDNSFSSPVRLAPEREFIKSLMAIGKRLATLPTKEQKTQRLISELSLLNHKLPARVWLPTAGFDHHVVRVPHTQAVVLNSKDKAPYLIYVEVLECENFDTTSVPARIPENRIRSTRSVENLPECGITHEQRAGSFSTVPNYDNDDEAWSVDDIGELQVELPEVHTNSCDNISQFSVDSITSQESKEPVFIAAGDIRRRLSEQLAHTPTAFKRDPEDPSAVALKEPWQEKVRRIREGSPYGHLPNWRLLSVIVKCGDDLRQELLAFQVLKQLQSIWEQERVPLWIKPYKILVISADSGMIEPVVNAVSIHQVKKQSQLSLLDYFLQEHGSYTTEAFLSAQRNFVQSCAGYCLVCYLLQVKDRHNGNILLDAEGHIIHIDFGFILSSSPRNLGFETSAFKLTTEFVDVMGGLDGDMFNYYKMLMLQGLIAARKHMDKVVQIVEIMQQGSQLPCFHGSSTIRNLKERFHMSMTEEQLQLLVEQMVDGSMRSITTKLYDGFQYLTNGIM

For CN1CCN(C(=O)c2ccc3cc(CCNc4ccnc5ccc(C#N)cc45)ccc3c2)CC1 [compound 6148, 4-((2-(6-(4-methylpiperazine-1-carbonyl)naphthalen-2-yl)ethyl)amino)quinoline-6-carbonitrile], the remaining binding at 2 µM (PIK4CB (PI4KB)) was 51%, the remaining binding at 2 µM (FLT3(D835V)) was 67% and the Kd (CDK19) was 44 nM. The remaining binding at 2 µM (CSNK1G2) was 89%, the remaining binding at 2 µM (CLK1) was 60% and the remaining binding at 2 µM [1] was 65%. It also gave a remaining binding at 2 µM (MAP4K5) of 95%.
